The source of these data is ChEMBL document CHEMBL1155525, “Substituted 2H-isoquinolin-1-one as potent Rho-Kinase inhibitors. Part 1: Hit-to-lead account” (Bioorg Med Chem Lett, 2010).

The structures appear in SMILES notation. Converted amounts (≈) assume the structure as drawn.

Data set [1] in a line: in vitro. The following applies: rat, liver microsomes. (In general: Liver microsomes are a subcellular fraction often used to study metabolism.)
Data set [2] can be described thus: in vitro. Conditions: human, liver microsomes.
The nature of data set [3]: in vivo. Conditions: rat.
Data set [4] is described as follows: Solubility at pH 7.4. Conditions: buffer. In kind it is physicochemical.
The nature of data set [5]: in vivo. The following applies: rat, iv, 1 mg/kg.
A short description of data set [6]: in vivo. The following applies: rat, plasma.
Data set [7] can be described thus: Oral bioavailability in rat at 10 mg/kg. In kind it is ADME, organism-based. Conditions: in vivo.

As a reminder, the half-life is the time in which the quantity being followed falls by half. As usually defined, the AUC is concentration integrated over time. The solubility is the dissolved amount per volume that the medium holds. Low readings indicate little dissolved substance, high ones much dissolved substance. A word on the clearance: it is the volume of plasma or blood freed of the substance per unit of time. A higher clearance goes with a high capacity for elimination. By bioavailability is commonly meant the share of a dose that reaches the circulation, judged against a reference dose that is usually intravenous. As for `O=C(Nc1cc2cc[nH]c(=O)c2cc1Cl)C(NC1CC1)c1ccccc1` (stereo not drawn), the half-life in “in vitro [1]” is 7 min; in “in vitro [2]”, 21 min; in “in vivo [6]”, 162 min. In the data set “in vivo [3]”, this molecule showed an AUC of 1290 ng·h/mL. Besides, the solubility in data set [4] worked out at 16 µg/mL (≈ 43.5 µM). The clearance in “in vivo [5]” amounted to 82 mL/min/kg. Besides, the bioavailability in data set [7] is 64%.

In “in vivo [3]”, `CN(C)C(C(=O)Nc1cc2cc[nH]c(=O)c2cc1Cl)c1ccccc1` (stereo not drawn) displayed an AUC of 30 ng·h/mL. The same molecule had a solubility in data set [4] of 6 µg/mL (≈ 16.9 µM). In data set [7], this molecule registered a bioavailability of 2%.

Consider `C[C@@H](N)[C@H]1CC[C@H](C(=O)Nc2ccncc2)CC1.Cl.Cl`, for which the half-life in “in vitro [2]” is above 90 min. The molecule further displayed a solubility in data set [4] above 32 µg/mL.

In data set [4], `O=S(=O)(c1cccc2cnccc12)N1CCCNCC1` [FASUDIL] gave a solubility above 60 µg/mL.
